Data published in patent US20160209428A1, “DIAGNOSTIC AND PREDICTIVE METABOLITE PATTERNS FOR DISORDERS AFFECTING THE BRAIN AND NERVOUS SYSTEM” (THE REGENTS OF THE UNIVERSITY OF CALIFORNIA, priority 2013, published 2016).

How the values were obtained:
[1] = system: Fragile X (Fmr1) knockout mouse; test: T-maze spontaneous alternation (novelty preference), Fragile X model; format: in vivo; conditions: Fmr1 KO mice, weekly suramin 20 mg/kg ip
Excerpt: A preference for novelty was estimated as spontaneous alternation behavior in the T-maze.

[2] = system: maternal immune activation (MIA) mouse model; test: Social approach (social preference), MIA model; format: in vivo
Method: To initiate the MIA model, pregnant dams were given two intraperitoneal injections of Poly(I:C) (Potassium salt; Sigma-Aldrich, St. Louis, Mo., USA, Cat no. P9582; >99% pure; <1% mononucleotide content). These were quantified by UV spectrophotometry. One unit (U) of poly(IC) was defined as 1 absorbance unit at 260 nm. Typically, 1U=12 μg of RNA. 0.25U/g [3 mg kg^−1] of poly(IC) was given on E12.5 and 0.125U g^−1 (1.5 mg kg^−1) on E17.5 as previously described. Contemporaneous control pregnancies were produced by timed matings and randomized assignment of pregnant dams to saline injection (5 μl g^−1 intraperitoneally (i.p.)) on E12.5 and E17.5.
Offspring of timed matings were weaned at 3-4 weeks of age into cages of two to four animals. No mice were housed in isolation. Only males were evaluated in these studies. Littermates were identified by ear tags and distributed into different cages in order to minimize litter and dam effects. To avoid chance differences in groups selected for single-dose treatment, the saline and poly(IC) exposure groups were each balanced according to their social approach scores at 2.25 months. […] Beginning 2 days later, behaviors were evaluated. […]
Social behavior in mice can be quantified as the time spent interacting with a novel (‘stranger’) mouse compared with the total time spent interacting with either a mouse or a novel inanimate object.

[3] = system: maternal immune activation (MIA) mouse model; test: Rotarod (latency to fall), MIA model; format: in vivo; conditions: MIA 6-month-old adults, single injection of suramin
Excerpt: (N=8-13, 6.75-month-old males per group).
Previous studies have shown age-dependent, postnatal loss of cerebellar Purkinje cells in the MIA model. This can reach up to 60% of Purkinje cells lost by 4 months (16 weeks) of age. Motor coordination measured by rotarod performance is deficient in the MIA model and is critically dependent on the integrity of Purkinje cell circuits in the cerebellum. Since Purkinje cells are known to be lost in MIA animals by 4 months (16 weeks) of age, it was hypothesized that APT given later in life would have no effect. The results confirmed this. […] Although cerebellar Purkinje cell density was not quantified in this study, our results are consistent with the notion that once Purkinje cells are lost, their function cannot be restored by APT in adult animals.

[4] = Suramin quantitation in plasma and brain tissues by LC-MS/MS; format: in vivo, mouse
Method: Offspring of timed matings were weaned at 3-4 weeks of age into cages of two to four animals. No mice were housed in isolation. Only males were evaluated in these studies. Littermates were identified by ear tags and distributed into different cages in order to minimize litter and dam effects. […] Beginning 2 days later, behaviors were evaluated.
Tissue samples (brainstem, cerebrum and cerebellum) were ground into powder under liquid nitrogen in a pre-cooled mortar. Powdered tissue (15-50 mg) was weighed and mixed with the internal standard trypan blue to a final concentration of 5 μM (pmol mg^−1) and incubated at room temperature for 10 min to permit metabolite interaction with binding proteins. Nine volumes of methanol:acetonitrile:H2O (43:43:16) pre-chilled to −20° C. was added to produce a final solvent ratio of 40:40:20, and the samples were deproteinated and macromolecules removed by precipitation on crushed ice for 30 min. The mixture was centrifuged at 16 000 g for 10 min at 4° C. and the supernatant was transferred to a new tube and kept at −80° C. for further LC-MS/MS (liquid chromatography-tandem mass spectrometry) analysis. For plasma, 90 μl was used, to which 10 μl of 50 μM stock of trypan blue was added to achieve an internal standard concentration of 5 μM. This was incubated at room temperature for 10 min to permit metabolite interaction with binding proteins, then extracted with 4 volumes (400 μl) of pre-chilled methanol:acetonitrile (50:50) to produce a final concentration of 40:40:20 (methanol:acetonitrile:H2O) and precipitated on ice for 10 min. Other steps were the same as for solid tissue extraction.
Ten microliters of extract were injected onto a Kinetix pentafluorophenyl column (150×2.1 mm, 2.6 μm; Phenomenex, Torrance, Calif., USA) held at 30° C. for chromatographic separation. The mobile phase A was water with 20 mM ammonium acetate (NH4OAC; pH 7) and mobile phase B was methanol with 20 mM NH4OAC (pH 7). […] The flow rate was 300 μl min^−1. All the samples were kept at 4° C. during analysis. […] The electrospray ionization source parameters were set as follows: source temperature 500° C.; curtain gas 30; ion source gas 1, 35; ion source gas 2 35; spray voltage −4500V. Analyst 1.6.1 was used for data acquisition and analysis. N=4-6 per tissue. Results are reported as means±s.e.m. in absolute μM (pmol μl^−1) concentration for plasma, and pmol mg^−1 wet weight for tissues.
After completing the behavioral studies described above, mass spectrometry was used to measure drug levels in plasma, cerebrum, cerebellum and brainstem following a 5-week period of drug washout.

[5] = 2 days after 20 mg kg^−1 i.p., control (Sal-Sur) or MIA (PIC-Sur) animals

Cc1ccc(C(=O)Nc2ccc(S(=O)(=O)O)c3cc(S(=O)(=O)O)cc(S(=O)(=O)O)c23)cc1NC(=O)c1cccc(NC(=O)Nc2cccc(C(=O)Nc3cc(C(=O)Nc4ccc(S(=O)(=O)O)c5cc(S(=O)(=O)O)cc(S(=O)(=O)O)c45)ccc3C)c2)c1 [Suramin, suramin]
deficient novelty preference (spontaneous alternation in T-maze) [1]: normalized
social abnormalities ([2]; 6.5-month-old MIA adults, single dose suramin 20 mg kg^−1 i.p.): completely reversed
social behavior five weeks after suramin washout ([2]; MIA animals, 5 weeks after single dose): small residual benefit
motor coordination (rotarod) [3]: failed to restore normal motor coordination
brainstem suramin ([4]; 2 days after 20 mg kg^−1 i.p.): 5.15 pmol/mg
suramin in cerebellum [4, 5]: < 0.10 pmol mg^−1 wet weight
suramin in cerebrum [4, 5]: < 0.10 pmol mg^−1 wet weight
suramin in any tissue (plasma, cerebrum, cerebellum, brainstem) ([4]; after 5 weeks of drug washout): No suramin was detected
concentration at 2 days ([4]; male, mouse, plasma, ip, 2 days after 20 mg kg^−1 i.p.): 7.64 µM
